Test results reported in US7247714B2, “Protection against oxidative stress and inflammation by a cytoprotective response element” (Atherogenics, Inc., priority 2001, dated 2007).
pIC50: −log10 of the molar value. “Also recorded” adds a separate entry of the source.

What was measured:
p3xCPRE/Luc [1] = experiment: p3xCPRE/Luc reporter, transient transfection in HMEC cells; type: cell-based, human; details: Compound A 10 μM
Protocol: (§1) In an effort to determine the utility of the CPRE-Luc reporter construct for the identification of small molecular weight compounds that activate the CPRE, the p3xCPRE/Luc reporter was transiently transfected into both HeLa and endothelial cells (HMECs). […] Similar results were obtained in HeLa cells with both t-BHQ and compound A (FIG. 12b).
(§2) HMECs and HeLa cells were transiently transfected with 1 μg of 3xCPRE-Luc and 0.1 μg of pRL-SV40. One day after transfection, cells were treated with t-BHQ or compound A. Luciferase activities were determined 16 hours after exposure to tBHQ. To generate stable HeLa cell lines that contain a stably-integrated copy of the CPRE-Luc gene, HeLa cells were transfected with p3xCPRE-Luc plus pcDNA-LacZ-Hyg (an expression vector containing the hygromycin drug resistance gene) using SuperFect transfection reagent. Two days after transfection, cells were cultured in hygromycin (400 μg/ml)-containing selection medium until individual colonies were identified. The colonies were expanded and the presence of CPRE-Luc-containing clones was examined by inducible luciferase activity. All experiments are an average of at least three independent determinations for each experimental sample.

p3xCPRE/Luc [2] = experiment: Activation of p3xCPRE/Luc by small molecular weight organic compounds (Table 6); type: cell-based, human; details: luciferase activity 16 hours after exposure
Protocol: In the in vitro assay system described above, a stable HeLa cell line was generated that contains a stably-integrated copy of the CPRE-Luc gene.
as §2, with “the compounds listed in Table 6” for “t-BHQ or compound A.”, “the compounds.” for “tBHQ.”, “SuperFeet” for “SuperFect”, “All experiments are an average of at least three independent determinations for each experimental sample.” left out

CPRE promoter = experiment: Stable HeLa cell line with stably-integrated CPRE-Luc gene; type: cell-based, human
Protocol: Although transient transfection methods are useful for understanding molecular mechanisms of gene expression and cellular biology, they are not suitable for high-throughput screening of libraries of compounds. Therefore, a stable HeLa cell line was generated that contains a stably-integrated copy of the CPRE-Luc gene.
as §2

[3] = tested on: murine model of allergen-induced peritonitis; experiment: Murine model of allergen-induced peritonitis (Type 1 hypersensitivity), eosinophil recruitment; type: in vivo, mouse; details: Compound A 50 mg/kg/d intravenous, 1 or 4 hours prior to ovalbumin challenge
Protocol: To evaluate the anti-inflammatory potential of compound A, a murine model of Type 1 hypersensitivity was used. In this model mice are sensitized to ovalbumin and subsequently challenged with ovalbumin by intraperitoneal injection. This leads to eosinophil recruitment and accumulation in the peritoneal cavity 24-48 hours after the challenge.
6-8 week old Balb/c mice (weighing 20-30 g) were given subcutaneous injections of ovalbumin in alum (0.4 ml of 100 μg ovalbumin and 3.3 mg of Alum Inject) on days 0 and 7. The mice were challenged on day 14 with an intraperitoneal injection of ovalbumin (10 μg in 0.2 ml saline). The mice were sacrificed and peritoneal lavage fluid collected 48 hours after the challenge. The peritoneal fluid was concentrated and slide smears made using a cytospin centrifuge. Slides were stained with Diff-Quik and differential counts obtained by counting 300 cells. Compound A was administered by intravenous injection, in a vehicle composed of 95% Liposyn and 5% Tween 20, 4 or 1 hour prior to challenge. Compound A was compared to dexamethosone administered orally at a dose of 2.5 mg/kg/d.
In a common allergic inflammation, balb/C mice were divided into two groups: control/vehicle and Compound G treated. They were then sensitized to ovalbumin on days 0 and 7 with a subcutaneous injection of ovalbumin absorbed in aluminum hydroxide. The treated group was dosed i.v. 50 mg/kg in liposyn/tween and vehicle one day prior to challenge. The mice were then challenged with an intraperitoneal injection of ovalbumin on day 14 and sacrificed 48 hrs post-challenge. Peritoneal fluid was collected and spun down onto slides. Slides were stained with DiffQuik and a differential performed.

p3xCPRE/Luc [4] = experiment: p3xCPRE/Luc reporter, transient transfection in HeLa cells; type: cell-based, human
Protocol: HMEC cells (passage 20) and HeLa cells were seeded into 6 well plates and were grown to approximately 60-70% confluency. Cells were transfected with 2 μg (HeLa) or 1 μg (HMEC) each of p3xCPRE/Luc reporter and Nrf-2 expression vector (an expression vector containing the full-length murine Nrf-2 gene under the control of the CMV promoter (Asakura & Karino (1990) Circ Res, 66:1045-1066). Cells were cultured for an additional 48 hours, and luciferase activity was determined (Promega). An average of at least three independent determinations were made for each experimental sample. Results are expressed as ratio of firefly/renilla luciferase.
as §1, §2

[5] = tested on: murine model of aerosolized ovalbumin-induced asthma; experiment: Mouse asthma model, airway eosinophilia and hyperreactivity; type: in vivo
Protocol: Male BALB-C mice, 6 weeks of age, were randomly assigned to one of following groups: ova/ova, vehicle control, dexamethasone (3 mg/kg) treatment, and Compound A. Animals were weighed on day 0, 7, 12 and 14 and were given access to food and water ad libidum. Mice were sensitized intraperitoneally with 8 μg of ovalbumin and 1 mg of aluminum hydroxide on Day 0 and Day 5. The animals were exposed to aerosolized ovalbumin (0.5%) twice on Day 12 (1 hr & 10 minutes per exposure). The ovalbumin exposures were separated by at least 4 hours. Differentials were performed on bronchoaveolar lavage fluid on Day 14 to determine % eosinophils. Compound A was orally administered daily at a dose of 300 mg/kg from time of sensitization to termination of study to the Compound A group.

VCAM-1 = experiment: TNF-α-activated cell surface expression of VCAM-1 in cell culture models; type: cell-based; details: read-out: IC50, inhibition of TNF-α-activated cell surface expression of VCAM-1
[6] = tested on: methylated BSA-induced model of delayed type hypersensitivity; experiment: Mouse delayed type hypersensitivity model (methylated BSA), paw swelling; type: in vivo; details: Compound A 100 mg/kg intraperitoneal at -24, -1 and +6 hrs from challenge; paw weight 24 hours later
Protocol: Balb/C mice were divided into two groups: control/vehicle and treated. They were sensitized intradermally on day 0 with methylated BSA (metBSA), and then challenged with metBSA on day 7 in the right hind paw. Compound A was administered at a dose of 100 mg/kg to the treated group by intraperitoneal injection −24, −1 and +6 hrs from the time of challenge. All animals were sacrificed 24 hours later and the left and right hind paws weighed. The left hind paw weight was subtracted from the right hind paw to give the paw weight increase.

COc1cc(OC)c(-c2cc3ccccc3s2)cc1/C=C/C(=O)c1cc(OC)c(OC)c(OC)c1 [Compound A, 3-(5-Benzo-[b]-thiophene-2-yl-2,4-dimethoxy-phenyl)-1-(3,4,5-trimethoxy-phenyl)propenone]
p3xCPRE/Luc activity (induction of transcription from the CPRE) (p3xCPRE/Luc [1]): greater than two-fold; also recorded: significantly increased | CPRE Activity: concentration to achieve a two-fold induction of CPRE activity over control (p3xCPRE/Luc [2]): 4.5 µM | CPRE/Luc activity, percent increase over control (vehicle) levels, concentration-response (CPRE promoter; Hela cells, 1.25, 2.5, 5, 10, 20 and 40 μM (FIG. 14)): significantly elevated in a concentration-dependent manner | Concentration of maximum activation of the CPRE promoter (CPRE promoter; stable HeLa cell line (FIG. 14)): approximately 20 μM | Eosinophil levels in peritoneal fluid (percent eosinophils) [3]: significantly decreased | Eosinophil levels in peritoneal fluid (percent eosinophils) ([3]; listed as compound A): significantly significant reduction | p3xCPRE/Luc activity (p3xCPRE/Luc [4]; Compound A 10 μM): significantly increased | p3xCPRE/Luc activity (p3xCPRE/Luc [4]; compound A 15 μM (FIG. 9c)): significantly increased | p3xCPRE/Luc activity, concentration-response (p3xCPRE/Luc [4]; transient transfection, 5, 10 and 20 μM (FIG. 13)): dose-dependent response; also recorded: significantly increased | Inhibition of eosinophilia in bronchoaveolar lavage fluid compared with vehicle controls ([5]; Compound A 300 mg/kg oral daily, Day 14, p<0.05): 48% | Eosinophil levels in bronchoaveolar lavage fluid ([5]; Compound A 300 mg/kg/d oral): significantly decreased | Lung function (airway hyperreactivity to methacholine) ([5]; Compound A 300 mg/kg/d oral, 300 mg/kg/day): significantly improved lung function | pIC50 (VCAM-1): ~5.85 | Inhibition of paw swelling compared with the vehicle controls [6]: 79%
